Here are results for four compounds from patent US10976320B2, “Methods for identifying and treating cancer patients” (The Board of Trustees of the Leland Stanford Junior …, priority 2013, dated 2021).

The test system of experiment [1] is Brg1fl/fl(ERD) ESCs. Put plainly: Cell cycle analysis (BrdU/7-AAD FACS) with or without caffeine. Type of experiment: cell-based, mouse. The settings on record: caffeine added to media 2 h before BrdU incubation; FIG. 1D. From the text:
FIG. 1A-FIG. 1F. BRG1 associates with Topo2A and regulates its function. FIG. 1A, Anaphase bridges in Brg1^fl/fl and Brg1^fl/fl(ERD) ESCs. Data represent number of slides from four independent experiments±s.e.m. FIG. 1B, Co-immunoprecipitation of BRG1 and Topo2A from nuclear lysates. FIG. 1C, DNA content in Brg1^fl/fl and Brg1^fl/fl(ERD) ESCs after release from double thymidine block. FIG. 1D, Cell cycle analysis of Brg1^fl/fl and Brg1^fl/fl(ERD) ESCs with or without caffeine, an ATM/ATR inhibitor. FIG. 1E, Data represent five independent histone H3 serine 10 phosphorylation (H3(S10)P cell cycle analyses±s.e.m. FIG. 1F, Data represent the mean of the average chromosome length per cell from 40 cells from metaphase spreads of Brg1^fl/fl and Brg1^fl/fl(ERD) MEFs from two independent experiments.
The cell cycle analysis was performed using BD Biosciences BrdU-FITC FACS kit. ESCs were incubated with BrdU for 1 h and MEFs were incubated with BrdU for 4 h. Brg1^fl/fl and Brg1^fl/fl(ERD) ESCs were analysed 72 h after tamoxifen treatment. Caffeine was added to media 2 h before BrdU incubation. To determine the percent of cells in G2/M, DNA was stained with 7-AAD and analysed by FACS.

Experiment [2] concerns NCI60 non small cell lung cancer lines expressing BRG1/BRM or deficient in both. The following applies: BRG1/BRM-deficient vs expressing NCI60 lung lines; IC50 (μM) only plotted in FIG. 12A-B; CellMiner data; cited from earlier work.
Experiment [3] deals with ARID1A wild-type cells (293T and ES2) and ARID1A mutant cells (Hec1b, SKOV3, T47D, and TOV21G). Put plainly: Synthetic lethal screen, Cell Titer Blue viability after treatment with topoisomerase inhibitors. Type of experiment: cell-based. The settings on record: ARID1A mutant vs wild-type cell lines; IC50 (μM) only plotted in FIG. 11A-C; 72 h after compound addition. On the procedure: FIG. 11A-FIG. 11C. Synthetic lethal screen comparing the sensitivity of ARID1A wild-type cells (293T and ES2) and ARID1A mutant cells (Hec1b, SKOV3, T47D, and TOV21G) to treatment with topoisomerase inhibitors. Values of IC50 (μM) are plotted on the y-axis, with error bars as shown. FIG. 11A: treatment with etoposide; FIG. 11B: treatment with doxorubicin; FIG. 11C: treatment with ICRF-193.
In each case, 1500-2000 cells were plated in 100 ul per 384 well clear bottom black plate (E&K Scientific EK-30091). After 24 hours, doses of the listed compound diluted in DMSO were pinned into the plates. After 48 hours, 10 ul of Cell Titer Blue (Promega) was added, and the cells were placed back in the incubator. Fluorescence was read after another 24 hours. IC50 values (μM) are reported on the y-axis.
(In general: Resazurin is reduced to fluorescent resorufin, in cell work by metabolically active cells.)

On to `Cn1c(=O)c2c(ncn2C)n(C)c1=O` [Caffeine], for which the “effect on G2/M arrest” value in experiment [1] is on record as “overrides the G2/M arrest”.

Take `COc1cccc2c1C(=O)c1c(O)c3c(c(O)c1C2=O)C[C@@](O)(C(=O)CO)C[C@@H]3O[C@H]1C[C@H](N)[C@H](O)[C@H](C)O1` [doxorubicin]: the “sensitivity of cell lines carrying mutations in BAF subunits to the topoisomerase inhibitor” value (“sensitivity … to the topoisomerase inhibitor” below) in experiment [2] and in experiment [3] was “decreased sensitivity” throughout.

On to `COc1cc([C@@H]2c3cc4c(cc3[C@@H](O[C@@H]3O[C@@H]5CO[C@@H](C)O[C@H]5[C@H](O)[C@H]3O)[C@H]3COC(=O)[C@H]23)OCO4)cc(OC)c1O` [etoposide], for which the “sensitivity … to the topoisomerase inhibitor” value in experiment [2] and in experiment [3] was “decreased sensitivity” in each case.

In the case of ICRF-193, the “sensitivity … to the topoisomerase inhibitor” value in experiment [3] was “no difference in the sensitivity”.
